pEC50, pIC50: −log10 of the molar value. Where two headings read alike, the source gives them in different places.
How the values were obtained:
[1] = molecular target: T1, NS3-NS4 protease (full-length NS3/NS4A-2) (Hepatitis C virus genotype 1a, UniProt P27958); experiment: NS3-NS4 protease assay / NS3 inhibition assay (RETS1 substrate, fluorescence kinetic read); assay type: biochemical; settings: read-out: NS3-NS4 IC50
T1 construct: Recombinant E. coli or Baculovirus full-length NS3 was diluted to 3.33 μM with assay buffer; made in house; host or cells: E. coli or baculovirus (insect cells)
Protocol: NS3 complex formation with NS4A-2.
The appropriate amount of NS4A-2 to 8.3 mM in assay buffer was added to equal the volume of NS3 in step 2.1.1 (conversion factor—3.8 mg/272 μL assay buffer). The material was transferred to an eppendorf tube and place in water bath in 4° C. refrigerator.
After equilibration to 4° C., equal volumes of NS3 and NS4A-2 solutions were combined in an eppendorf tube, mix gently with a manual pipettor, and incubate mixture for 15 minutes in the 4° C. water bath.
After 15 minutes at 4° C., the NS3/NS4A-2 eppendorf tube was removed and place it in a room temperature water bath for 10 minutes. NS3/NS4A-2 was alliquoted at appropriate volumes and store at −80° C. (E. coli NS3 run at 2 nM in assay, aliquot at 25 μL. BV NS3 run at 3 nM in assay, aliquot at 30 μL).
Sample compounds were dissolved to 10 mM in DMSO then diluted to 2.5 mM (1:4) in DMSO.
The E. coli. […] Using the manual multichannel pipettor, careful not to introduce bubbles into the plate, add 50 μL assay buffer to wells A01-H01 of a black Costar 96-well polypropylene storage plate.
Using the manual multichannel pipettor, careful not to introduce bubbles into the plate, add 50 μL of diluted NS3/NS4A-2 from step 2.2.6 to wells A02-H12 of plate in step 2.2.7. Using the manual multichannel pipettor, careful not to introduce bubbles into the plate, transfer 25 μL of the wells in drug dilution plate in step 2.2.5 to corresponding wells in assay plate in step 2.2.8. Change tips on multichannel pipettor for each row of compounds transferred. Using the manual multichannel pipettor, careful not to introduce bubbles into the plate, mix the wells from the assay plate in step 2.2.9 by aspirating and dispensing 35 μL of the 75 μL in each well five times. Change tips on multichannel pipettor for each row of wells mixed. Cover plate with a polystyrene plate lid and pre-incubate the plate from step 2.2.10 containing NS3 protease and sample compounds 10 minutes at room temperature. While plate from step 2.2.11 is pre-incubating, dilute RETS1 substrate in a 15 mL polypropylene centrifuge tube.
After the plate in step is done pre-incubating, and using the manual multichannel, add 25 μL of substrate to all wells on the plate. Quickly mix the plate as in step 2.2.10, mixing 65 μL of the 100 μL in the wells.
Read the plate in kinetic mode on the Molecular Devices SpectraMax
IC50s are determined using a four parameter curve fit equation, and converted to Ki's using the following Km's:
where Ki=IC50/(1+[S]/Km))

[2] = tested on: HCV sub-genomic replicon GS4.3 (HuH-7 hepatoma cells); experiment: Quantitation by ELISA of neomycin phosphotransferase II (NPTII) in the HCV sub-genomic replicon, GS4.3; assay type: cell-based
Description: Quantitation by ELISA of the Selectable Marker Protein, Neomycin Phosphotransferase II (NPTII) in the HCV Sub-Genomic Replicon, GS4.3
The HCV sub-genomic replicon (1377/NS3-3′, accession No. AJ242652), stably maintained in HuH-7 hepatoma cells, was created by Lohmann et al. Science 285: 110-113 (1999). The replicon-containing cell culture, designated GS4.3, was obtained from Dr. Christoph Seeger of the Institute for Cancer Research, Fox Chase Cancer Center, Philadelphia, Pa.
GS4.3 cells were maintained at 37° C., 5% CO2, in DMEM (Gibco 11965-092) supplemented with L-glutamine 200 mM (100×) (Gibco25030-081), non-essential amino acids (NEAA)(Biowhittaker 13-114E), heat-inactivated (HI) Fetal Bovine Serum(FBS)(Hyclone SH3007.03) and […] geneticin (G418)(Gibco 10131-035). Cells were sub-divided 1:3 or 4 every 2-3 days.
24 h prior to the assay, GS4.3 cells were collected, counted, and plated in 96-well plates (Costar 3585) at 7500 cells/well in 100 μl standard maintenance medium (above) and incubated in the conditions above. To initiate the assay, culture medium was removed, cells were washed once with PBS (Gibco 10010-023) and 90 μl Assay Medium (DMEM, L-glutamine, NEAA, 10% HI FBS, no G418) was added. Inhibitors were made as a 10× stock in Assay Medium, (3-fold dilutions from 10 μM to […] final concentration, final DMSO concentration 1%), 10 μl were added to duplicate wells, plates were rocked to mix, and incubated as above for 72 h.
An NPTII Elisa kit was obtained from AGDIA, Inc. (Compound direct ELISA test system for Neomycin Phosphotransferase II, PSP 73000/4800). Manufacturer's instructions were followed, with some modifications. 10×PEB-1 lysis buffer was made up to include 500 μM PMSF (Sigma P7626, 50 mM stock in isopropanol). After 72 h incubation, cells were washed once with PBS and 150 μlPEB-1 with PMSF was added per well. Plates were agitated vigorously for 15 minutes, room temperature, then frozen at −70° C. Plates were thawed, lysates were mixed thoroughly, and 100 μl were applied to an NPTII Elisa plate. A standard curve was made. Lysate from DMSO-treated control cells was pooled, serially diluted with PEB-1 with PMSF, and applied to duplicate wells of the ELISA plate, in a range of initial lysate amount of 150 ul-2.5 ul. In addition, 100 μl buffer alone was applied in duplicate as a blank. Plates were sealed and gently agitated at room temperature for 2 h. Following capture incubation, the plates were washed 5×300 μlwith PBS-T (0.5% Tween-20, PBS-T was supplied in the ELISA kit). For detection, a 1× dilution of enzyme conjugate diluent MRS-2 (5×) was made in PBS-T, into which 1:100 dilutions of enzyme conjugates A and B were added, as per instructions. Plates were resealed, and incubated with agitation, covered, room temperature, for 2 h. The washing was then repeated and 100 μlof room temperature TMB substrate was added. After approximately 30 minutes incubation (room temperature, agitation, covered), the reaction was stopped with 50 μl 3M sulfuric acid. Plates were read at 450 nm on a Molecular Devices Versamax plate reader.
Inhibitor effect was expressed as a percentage of DMSO-treated control signal, and inhibition curves were calculated using a 4-parameter equation: y=A+4B-A)/(1+((C/x)^13))), where C is half-maximal activity or EC50.

[3] = Hepatitis C virus, Huh-7, GS4.3 cells, 72 h, read-out: Replicon EC50
[4] = GS4.3 cells, 72 h, read-out: Replicon EC50

T1 sequence (P27958 1027-1657): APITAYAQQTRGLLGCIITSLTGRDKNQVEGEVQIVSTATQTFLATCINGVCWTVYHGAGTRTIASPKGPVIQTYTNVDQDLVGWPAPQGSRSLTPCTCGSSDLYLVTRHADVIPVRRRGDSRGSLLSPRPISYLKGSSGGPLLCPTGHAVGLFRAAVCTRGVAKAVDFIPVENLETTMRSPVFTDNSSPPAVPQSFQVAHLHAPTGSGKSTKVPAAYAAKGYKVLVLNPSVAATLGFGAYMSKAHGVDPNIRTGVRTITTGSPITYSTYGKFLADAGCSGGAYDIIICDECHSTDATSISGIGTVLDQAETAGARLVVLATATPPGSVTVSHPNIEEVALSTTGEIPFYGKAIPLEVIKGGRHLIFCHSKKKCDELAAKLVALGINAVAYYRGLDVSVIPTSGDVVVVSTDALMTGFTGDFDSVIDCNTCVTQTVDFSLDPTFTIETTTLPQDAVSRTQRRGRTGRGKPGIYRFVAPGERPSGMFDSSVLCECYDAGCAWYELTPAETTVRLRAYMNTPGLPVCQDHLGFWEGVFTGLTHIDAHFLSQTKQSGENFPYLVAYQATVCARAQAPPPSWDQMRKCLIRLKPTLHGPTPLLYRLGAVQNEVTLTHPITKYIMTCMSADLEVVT

Structure (SMILES)	pIC50 [1]	pEC50 [2, 3]	pEC50 [2, 4]	pEC50 ([2]; Hepatitis C virus, Huh-7, Table 26, read-out: EC50)
CC(C)(C)OC(=O)NC1CCCCC/C=C\[C@H]2C[C@@]2(C(=O)NS(=O)(=O)NCC(F)(F)F)NC(=O)C2CC(OC(=O)N3Cc4cccc(Cl)c4C3)CN2C1=O (single isomer, unassigned) [Compound 226]	> 7.00	> 7.00	–	–
CC(C)(C)OC(=O)N[C@H]1CCCCC/C=C\[C@@H]2C[C@@]2(C(=O)NS(=O)(=O)C2(C)CC2)NC(=O)[C@@H]2C[C@@H](OC(=O)N3Cc4ccccc4C3)CN2C1=O [Compound 100, (1S,4R,6S,14S,18R)-1,3-Dihydro-isoindole-2-carboxylic acid 14-tert-butoxycarbonylamino-4-(1-methylcyclopropane-1-sulfonyl)aminocarbonyl-2,15-dioxo-3,16-diaza-tricyclo[14.3.0.0^4,6]nonadec-7-en-18-yl Ester]	> 7.00	> 7.00	–	–
C[C@@H](NC(=O)O[C@@H]1C[C@H]2C(=O)N[C@]3(C(=O)NS(=O)(=O)C4CC4)C[C@H]3/C=C\CCCCC[C@H](NC(=O)OC(C)(C)C)C(=O)N2C1)c1ccc(F)cn1 [Compound 150]	> 7.00	–	< 5.00	–
CC(C)(C)OC(=O)N[C@H]1CCCCC/C=C\[C@@H]2C[C@@]2(C(=O)NS(=O)(=O)C2CC2)NC(=O)C2C[C@@H](OC(=O)NCc3ccc(F)cn3)CN2C1=O (stereo partly shown) [Compound 152]	> 7.00	< 5.00	–	–
CC(C)(C)OC(=O)N[C@H]1CCCCC/C=C\[C@@H]2C[C@@]2(C(=O)O)NC(=O)C2C[C@@H](OC(=O)N3Cc4cccc(Cl)c4C3)CN2C1=O (stereo partly shown) [Compound 177]	> 7.00	> 5.00	–	–
O=C1N[C@]2(C(=O)NS(=O)(=O)C3CC3)C[C@H]2/C=C\CCCCC[C@H](NC(=O)N2CCCC2)C(=O)N2CC(OC(=O)N3Cc4cccc(F)c4C3)C[C@@H]12 (stereo partly shown) [Compound 243]	–	> 7.00	–	–
O=C1N[C@]2(C(=O)NS(=O)(=O)C3CC3)C[C@H]2/C=C\CCCCC[C@H](NC(=S)N2CCCC2)C(=O)N2CC(OC(=O)N3Cc4cccc(F)c4C3)C[C@@H]12 (stereo partly shown) [Compound 244]	–	> 7.00	–	–
CN(Cc1ccccc1)C(=O)OC1C[C@H]2C(=O)N[C@]3(C(=O)NS(=O)(=O)C4CC4)C[C@H]3/C=C\CCCCC[C@H](NC(=O)OC(C)(C)C)C(=O)N2C1 (stereo partly shown) [Compound 245]	–	> 6.00	–	–
O=C1N[C@]2(C(=O)NS(=O)(=O)C3CC3)C[C@H]2/C=C\CCCCC[C@H](NC(=O)C2(C(F)(F)F)CC2)C(=O)N2C[C@H](OC(=O)N3Cc4cccc(Cl)c4C3)C[C@@H]12 [Compound 265]	> 7.00	> 7.00	–	–
CNc1c(NC(=O)C23C[C@H]2/C=C\CCCCC[C@H](NC(=O)OC(C)(C)C)C(=O)N2C[C@H](OC(=O)N4Cc5cccc(F)c5C4)C[C@H]2C(=O)N3)c(=O)c1=O (stereo partly shown) [Compound 646]	–	< 5.00	–	–
CC(C)(C)OC(=O)N[C@H]1CCCCC/C=C\[C@@H]2C[C@@]2(C(=O)NC(=O)c2ccccc2)NC(=O)[C@@H]2C[C@@H](OC(=O)N3Cc4ccccc4C3)CC2C1=O (stereo partly shown) [Compound 705]	> 7.00	> 7.00	–	–
O=C(N[C@H]1CCCCC/C=C\[C@@H]2C[C@@]2(C(=O)NC(=O)C2CC2)NC(=O)C2C[C@@H](OC(=O)N3CCc4ccccc4C3)CN2C1=O)OC1CCCC1 (stereo partly shown) [Compound 706]	–	> 7.00	–	–
O=C1N[C@]2(C(=O)NS(=O)(=O)C3CC3)C[C@H]2/C=C\CCCCC[C@H](NCc2ccc(CO)o2)C(=O)N2C[C@H](OC(=O)N3Cc4cccc(F)c4C3)C[C@@H]12 [Compound 913]	> 7.00	> 6.00	–	–
CC(C)(C)OC(=O)N[C@H]1CCC(F)(F)CCCC[C@@H]2C[C@@]2(C(=O)NS(=O)(=O)C2CC2)NC(=O)[C@@H]2C[C@@H](OC(=O)N3Cc4cccc(F)c4C3)CN2C1=O [Compound 1010, (2R,6S,13aS,14aR,16aS,Z)-6-(tert-butoxycarbonylamino)-14a-(cyclopropylsulfonylcarbamoyl)-9,9-difluoro-5,16-dioxooctadecahydrocyclopropa (e) prrolo[1,2-a][1,4]diazacyclopentadecine 2-yl 4-fluoroisoindoline-2-carboxylate]	> 7.00	> 7.00	–	–
CC(C)(C)OC(=O)N[C@H]1CCC(O)CC/C=C\[C@@H]2C[C@@]2(C(=O)NS(=O)(=O)C2CC2)NC(=O)[C@@H]2C[C@@H](OC(=O)N3Cc4cccc(F)c4C3)CN2C1=O (stereo partly shown) [Compound 1018]	–	> 6.00	–	–
CC(C)(C)OC(=O)N[C@H]1CCCOC/C=C\[C@@H]2C[C@@]2(C(=O)NS(=O)(=O)C2CC2)NC(=O)[C@@H]2C[C@@H](OC(=O)N3Cc4cccc(F)c4C3)CN2C1=O [Compound 1021, (2R,6S,13aS,14aR,16aS,Z)-6-(tert-butoxycarbonylamino)-14a-(cyclopropylsulfonylcarbamoyl)-5,16-dioxo-2,3,5,6,7,8,9,11,13a,14,14a,15,16,16a-tetradecahydro-1H-cyclopropa(e)pyrrolo[2,1-i][1,7,10]oxadiazacyclopentadecin-2-yl 4-fluoroisoindoline-2-carboxylate]	> 5.00	–	< 5.00	–
CC(C)(C)OC(=O)N[C@H]1COCCC/C=C\[C@@H]2C[C@@]2(C(=O)NS(=O)(=O)C2CC2)NC(=O)[C@@H]2C[C@@H](OC(=O)N3Cc4cccc(Cl)c4C3)CN2C1=O [Compound 1025]	–	> 7.00	–	–
CC(C)(C)OC(=O)N[C@H]1CCN(S(=O)(=O)c2ccccc2[N+](=O)[O-])CC/C=C\[C@@H]2C[C@@]2(C(=O)O)NC(=O)[C@@H]2C[C@@H](OC(=O)N3Cc4cccc(F)c4C3)CN2C1=O [Compound 1029]	> 7.00	> 5.00	–	–
CC(C)(C)OC(=O)N[C@H]1CCCCC/C=C\[C@@H]2C[C@@]2(C(=O)NS(=O)(=O)C2CC2)NC(=O)[C@@H]2CCCN2C1=O [Compound 2137, 1S,4R,6S,14S)tert-but 14-Cyclopropanesulfonylaminocarbonyl-2,15-dioxo-3,16-diaza-tricyclo[14.3.0.0^4,6]nonadec-7-ene-14-yl carbamate]	< 5.00	–	–	< 5.00
